Assay results reported in patent US4411832A, “Polysaccharide matrices comprising macromolecular spacer arms for use as adsorbents in affinity chromatography techniques” (priority 1981, dated 1983).

Target: T1, estradiol receptor (Bos taurus, UniProt P49884)
T1 construct: incubated in suspension with varying concentrations of [^3 H]estradiol and with the uterine supernatant; from tissue; host or cells: uterus (uterine supernatant)
T1 sequence (P49884 1-596): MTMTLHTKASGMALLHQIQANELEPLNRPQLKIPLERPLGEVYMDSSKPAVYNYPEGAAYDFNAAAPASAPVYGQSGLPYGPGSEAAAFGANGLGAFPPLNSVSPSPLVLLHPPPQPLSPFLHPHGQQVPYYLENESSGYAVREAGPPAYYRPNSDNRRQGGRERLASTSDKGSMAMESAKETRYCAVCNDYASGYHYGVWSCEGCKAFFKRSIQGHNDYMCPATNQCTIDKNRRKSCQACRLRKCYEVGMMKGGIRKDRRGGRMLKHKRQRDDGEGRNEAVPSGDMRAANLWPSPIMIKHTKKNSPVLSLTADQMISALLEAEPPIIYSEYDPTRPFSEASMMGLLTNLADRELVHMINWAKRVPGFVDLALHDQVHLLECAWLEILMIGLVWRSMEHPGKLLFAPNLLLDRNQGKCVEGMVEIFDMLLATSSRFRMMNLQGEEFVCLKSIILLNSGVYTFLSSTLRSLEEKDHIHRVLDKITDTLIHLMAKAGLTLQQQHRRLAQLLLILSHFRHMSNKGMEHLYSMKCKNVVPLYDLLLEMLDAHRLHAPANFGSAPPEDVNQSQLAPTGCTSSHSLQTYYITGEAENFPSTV
Assay: Affinity of the estradiol receptor for agarose-estradiol derivatives (incubation with [3H]estradiol and uterine supernatant, reciprocal plots)
Assay type: binding
Settings: free ligand, uterine supernatant, estimated, read-out: dissociation constant
Experimental: Experiments were performed to estimate the affinity of the estradiol receptor for the macromolecular agarose-estradiol derivatives to compare the relative affinities of the various derivatives. The adsorbents are incubated in suspension with varying concentrations of [^3 H]estradiol and with the uterine supernatant, and the data were plotted in reciprocal plots to estimate the comparative affinities toward the estradiol receptor.

Question: `C[C@]12CC[C@@H]3c4ccc(O)cc4CC[C@H]3[C@@H]1CC[C@@H]2OC(=O)CCC(=O)O` [17β-estradiol 17-hemisuccinate] was tested. Which Kd did it give?
Answer: ~0.7 µM
